Values quoted from earlier work, collected in patent US8759364B2, “Methods of treating bone mass diseases” (The Trustees of Columbia University in the City of New York, priority 2008, dated 2014).

Legend:
[1] = test system: Serotonin levels in the small intestine; conditions: mice, twice per day over 3-4 days, about 30-90 mg/kg; after six consecutive doses; cited from earlier work
brain-derived serotonin = conditions: mice, cited from earlier work
TPH2 = biological target: T1, TPH2 (Homo sapiens, UniProt Q8IWU9); conditions: cited from earlier work
T1 sequence (Q8IWU9 1-490): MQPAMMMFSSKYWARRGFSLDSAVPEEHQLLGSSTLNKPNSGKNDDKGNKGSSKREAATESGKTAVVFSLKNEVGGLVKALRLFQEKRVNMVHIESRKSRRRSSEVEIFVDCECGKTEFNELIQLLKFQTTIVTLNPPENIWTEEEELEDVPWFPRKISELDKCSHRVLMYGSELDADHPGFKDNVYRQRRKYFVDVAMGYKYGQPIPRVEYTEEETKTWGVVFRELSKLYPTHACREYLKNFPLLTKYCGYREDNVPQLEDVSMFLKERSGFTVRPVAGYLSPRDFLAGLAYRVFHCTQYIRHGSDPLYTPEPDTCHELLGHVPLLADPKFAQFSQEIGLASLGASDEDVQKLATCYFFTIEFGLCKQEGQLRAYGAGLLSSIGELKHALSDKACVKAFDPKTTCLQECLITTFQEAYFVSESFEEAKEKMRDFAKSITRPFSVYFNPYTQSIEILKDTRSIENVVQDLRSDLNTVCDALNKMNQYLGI

[2] = test system: serotonin in the GI tract; conditions: cited from earlier work
brain serotonin levels = conditions: in the amounts administered to mice; cited from earlier work
[3] = oral, single dose 250 mg to 2,000 mg/day and multiple doses 250-1,000 mg/day; all dose levels; cited from earlier work
[4] = in vivo; cited from earlier work

SMILES	Serotonin levels in the small intestine [1]	brain-derived serotonin (brain-derived serotonin; twice per day over 3-4 days, about 30-90 mg/kg)	crossing of the blood-brain barrier in vivo (brain-derived serotonin)	inhibition of TPH2 compared with TPH1 (TPH2)	serotonin in the GI tract reduced to fraction of normal levels ([2]; 135 mg/kg, po, qd)	dose response of GI tract serotonin reduction ([2]; mouse, in vivo)	brain serotonin levels (brain serotonin levels)	adverse events [3]	absorption from the GI tract [4]
Nc1nc(OC(c2ccc(-c3cccc(F)c3)cc2)C(F)(F)F)cc(-c2ccc(C[C@H](N)C(=O)O)cc2)n1 (stereo partly drawn) [LP-533401]	significantly lowered	unchanged	did not cross	as effectively as	less than ⅔	dose response curve	not affected	Infrequent	
CC(C)NCC(O)COc1cccc2[nH]ccc12 (stereo not drawn) [Pindolol, pindolol]									beta blocker; rapidly and well
